Test results as given in patent US11447466B2, “Substituted indole compounds useful as inhibitors of TLR7/8/9” (BRISTOL-MYERS SQUIBB COMPANY, priority 2017, dated 2022).

What was measured:
Assay type in all cases: cell-based
human TLR9 = target: T1, human TLR9 (Homo sapiens, UniProt Q9NR96); assay: TLR9 inhibition reporter assay (HEK-Blue SEAP reporter, ODN2006 stimulation); details: HEK-Blue cells overexpressing human TLR9, SEAP reporter, ODN2006 5 nM, 22 hour incubation
T1 construct: host or cells: HEK-Blue cells
T1 sequence (Q9NR96 26-1032): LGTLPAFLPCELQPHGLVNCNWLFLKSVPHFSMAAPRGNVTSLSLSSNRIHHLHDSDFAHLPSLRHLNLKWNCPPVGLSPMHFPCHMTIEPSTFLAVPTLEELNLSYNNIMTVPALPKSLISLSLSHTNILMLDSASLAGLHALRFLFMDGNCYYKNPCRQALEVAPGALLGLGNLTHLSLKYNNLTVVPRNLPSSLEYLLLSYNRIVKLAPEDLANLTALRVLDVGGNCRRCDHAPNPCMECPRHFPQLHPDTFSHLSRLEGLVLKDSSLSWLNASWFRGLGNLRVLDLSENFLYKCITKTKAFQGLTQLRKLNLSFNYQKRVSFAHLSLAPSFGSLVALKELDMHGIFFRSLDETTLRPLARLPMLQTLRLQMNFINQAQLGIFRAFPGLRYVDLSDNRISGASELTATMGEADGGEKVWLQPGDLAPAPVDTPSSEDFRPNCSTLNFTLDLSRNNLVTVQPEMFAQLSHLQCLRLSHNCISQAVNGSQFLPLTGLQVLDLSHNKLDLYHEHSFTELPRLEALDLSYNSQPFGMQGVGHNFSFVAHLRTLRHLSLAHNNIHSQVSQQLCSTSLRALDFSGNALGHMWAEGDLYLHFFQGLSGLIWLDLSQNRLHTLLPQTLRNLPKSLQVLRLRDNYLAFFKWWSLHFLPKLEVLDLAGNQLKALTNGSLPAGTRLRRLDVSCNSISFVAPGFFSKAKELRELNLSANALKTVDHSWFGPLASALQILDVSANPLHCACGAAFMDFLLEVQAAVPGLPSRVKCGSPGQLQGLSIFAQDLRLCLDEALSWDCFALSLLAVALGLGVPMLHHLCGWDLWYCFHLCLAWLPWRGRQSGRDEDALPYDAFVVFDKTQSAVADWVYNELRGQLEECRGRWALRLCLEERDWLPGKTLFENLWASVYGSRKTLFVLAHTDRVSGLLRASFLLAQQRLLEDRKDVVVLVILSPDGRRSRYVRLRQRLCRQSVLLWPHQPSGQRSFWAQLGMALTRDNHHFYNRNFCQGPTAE
In short: (§1)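 Compound treatment: 30 min, RT, 0.05 nM–50 μM final. Agonist: TLR7 gardiquimod 7.5 μM; TLR8 R848 15.9 μM; TLR9 ODN2006 5 nM. Incubation 22 h, 37 °C, 5% CO2. Readout SEAP, HEK-Blue Detection.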

human TLR8 = target: T2, human TLR8 (Homo sapiens, UniProt Q9NR97); assay: TLR8 inhibition reporter assay (HEK-Blue SEAP reporter, R848 stimulation); details: HEK-Blue cells overexpressing human TLR8, SEAP reporter, R848 15.9 μM, 22 hour incubation
T2 construct: host or cells: HEK-Blue cells
T2 sequence (Q9NR97 27-1041): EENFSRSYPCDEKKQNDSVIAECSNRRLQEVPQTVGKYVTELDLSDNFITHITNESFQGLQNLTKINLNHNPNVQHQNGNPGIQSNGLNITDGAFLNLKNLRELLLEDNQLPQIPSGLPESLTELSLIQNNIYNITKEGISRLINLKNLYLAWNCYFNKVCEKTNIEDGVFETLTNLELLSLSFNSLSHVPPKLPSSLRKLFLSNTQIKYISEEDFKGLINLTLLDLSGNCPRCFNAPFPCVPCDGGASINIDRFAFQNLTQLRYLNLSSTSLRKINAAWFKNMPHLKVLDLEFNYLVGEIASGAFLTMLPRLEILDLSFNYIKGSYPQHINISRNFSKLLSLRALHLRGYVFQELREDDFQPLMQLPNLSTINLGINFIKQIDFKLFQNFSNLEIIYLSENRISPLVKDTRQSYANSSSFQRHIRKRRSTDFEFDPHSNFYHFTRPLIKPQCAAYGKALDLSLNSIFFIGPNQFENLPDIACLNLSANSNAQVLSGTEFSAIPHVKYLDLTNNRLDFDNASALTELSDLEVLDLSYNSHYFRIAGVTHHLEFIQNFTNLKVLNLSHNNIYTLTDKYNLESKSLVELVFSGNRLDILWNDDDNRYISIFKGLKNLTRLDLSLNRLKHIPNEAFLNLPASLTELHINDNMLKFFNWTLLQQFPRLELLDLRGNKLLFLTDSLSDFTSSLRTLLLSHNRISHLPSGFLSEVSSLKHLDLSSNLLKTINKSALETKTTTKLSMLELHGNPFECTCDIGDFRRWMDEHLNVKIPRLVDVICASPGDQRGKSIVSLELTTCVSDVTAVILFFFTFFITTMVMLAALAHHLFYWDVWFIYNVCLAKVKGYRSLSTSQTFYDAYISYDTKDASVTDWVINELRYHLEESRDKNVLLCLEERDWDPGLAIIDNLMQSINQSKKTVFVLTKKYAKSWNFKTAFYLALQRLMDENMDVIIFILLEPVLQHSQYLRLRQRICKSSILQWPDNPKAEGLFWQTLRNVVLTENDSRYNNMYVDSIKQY
In short: as §1

human TLR7 = target: T3, human TLR7 (Homo sapiens, UniProt Q9NYK1); assay: TLR7 inhibition reporter assay (HEK-Blue SEAP reporter, gardiquimod stimulation); details: HEK-Blue cells overexpressing human TLR7, SEAP reporter, gardiquimod 7.5 μM, 22 hour incubation
T3 construct: host or cells: HEK-Blue cells
T3 sequence (Q9NYK1 27-1049): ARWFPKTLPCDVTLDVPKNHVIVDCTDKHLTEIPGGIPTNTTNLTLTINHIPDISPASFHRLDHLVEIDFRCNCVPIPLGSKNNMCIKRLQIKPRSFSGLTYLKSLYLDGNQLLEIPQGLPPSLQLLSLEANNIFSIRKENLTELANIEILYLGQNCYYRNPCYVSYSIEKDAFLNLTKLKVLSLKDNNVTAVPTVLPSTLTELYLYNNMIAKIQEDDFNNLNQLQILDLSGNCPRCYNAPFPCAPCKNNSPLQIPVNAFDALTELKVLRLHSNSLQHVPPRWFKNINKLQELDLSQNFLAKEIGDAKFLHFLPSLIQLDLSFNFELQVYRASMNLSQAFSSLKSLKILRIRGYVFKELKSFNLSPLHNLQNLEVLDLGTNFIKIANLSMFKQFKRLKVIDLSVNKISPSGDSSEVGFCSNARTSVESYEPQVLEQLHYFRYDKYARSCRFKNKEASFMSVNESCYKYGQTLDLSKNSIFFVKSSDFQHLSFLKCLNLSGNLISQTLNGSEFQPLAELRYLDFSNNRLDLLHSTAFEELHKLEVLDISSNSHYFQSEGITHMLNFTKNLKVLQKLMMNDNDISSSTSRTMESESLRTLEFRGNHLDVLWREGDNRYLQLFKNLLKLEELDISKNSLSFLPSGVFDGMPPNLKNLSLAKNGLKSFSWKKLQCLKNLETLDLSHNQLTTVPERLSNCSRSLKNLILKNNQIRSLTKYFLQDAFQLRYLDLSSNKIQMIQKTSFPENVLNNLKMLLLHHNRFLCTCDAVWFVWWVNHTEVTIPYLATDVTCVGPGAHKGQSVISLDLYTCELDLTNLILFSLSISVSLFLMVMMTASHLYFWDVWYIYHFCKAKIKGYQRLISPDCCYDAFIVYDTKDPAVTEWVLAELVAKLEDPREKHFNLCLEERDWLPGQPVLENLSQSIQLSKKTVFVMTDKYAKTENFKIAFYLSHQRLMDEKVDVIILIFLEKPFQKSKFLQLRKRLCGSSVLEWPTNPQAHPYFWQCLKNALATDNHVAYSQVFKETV
In short: as §1

SMILES	IC50 (human TLR9)	IC50 (human TLR8)	IC50 (human TLR7)
Cc1cc(-c2[nH]c3ccc(C4CCN(CC(C)C)CC4)cc3c2C(C)C)cn(Cc2ccccc2)c1=O [Example 113, 1-benzyl-5-(5-(1-isobutylpiperidin-4-yl)-3-isopropyl-1H-indol-2-yl)-3-methylpyridin-2(1H)-one]	2190 nM	70.7 nM	26.4 nM
C=Cc1cc(-c2[nH]c3ccc(C4CCN(CC(=O)N(C)C)CC4)cc3c2C(C)C)cn(C)c1=O [Example 352, 2-(4-(3-isopropyl-2-(1-methyl-6-oxo-5-vinyl-1,6-dihydropyridin-3-yl)-1H-indol-5-yl)piperidin-1-yl)-N,N-dimethylacetamide]	2420 nM	31.5 nM	21.5 nM
COCCOCCOCCN1CCC(c2ccc3[nH]c(-c4cn(C)c(=O)c(Cl)c4C)c(C(C)C)c3c2)CC1 [Example 98, 3-chloro-5-(3-isopropyl-5-(1-(2-(2-(2-methoxyethoxy)ethoxy)ethyl)piperidin-4-yl)-1H-indol-2-yl)-1,4-dimethylpyridin-2(1H)-one]	8750 nM	10.4 nM	20.6 nM
Cc1cc(-c2[nH]c3ccc(C4CCN(C5CCOC5)CC4)cc3c2C(C)C)nn(C)c1=O (stereo not drawn) [Example 193, 6-(3-isopropyl-5-(1-(tetrahydrofuran-3-yl)piperidin-4-yl)-1H-indol-2-yl)-2,4-dimethylpyridazin-3(2H)-one]	8920 nM	11.7 nM	12.6 nM
CC(C)c1c(-c2cc(-c3cccnc3)c(=O)n(C)c2)[nH]c2ccc(C3CCN(C(C)C)CC3)cc12 [Example 235, 5-(3-isopropyl-5-(1-isopropylpiperidin-4-yl)-1H-indol-2-yl)-1-methyl-[3,3′-bipyridin]-2(1H)-one]	1770 nM	5.2 nM	11 nM
CC(C)c1c(-c2cc(-c3cccnc3)c(=O)n(C)c2)[nH]c2ccc(C3CCNCC3)cc12 [Example 50, 5-(3-isopropyl-5-(piperidin-4-yl)-1H-indol-2-yl)-1-methyl-[3,3′-bipyridin]-2(1H)-one]	411 nM	7.7 nM	6.8 nM
CC(C)c1c(-c2cc(-c3cccc(C(N)=O)c3)c(=O)n(C)c2)[nH]c2ccc(C3CCNCC3)cc12 [Example 58, 3-(5-(3-isopropyl-5-(piperidin-4-yl)-1H-indol-2-yl)-1-methyl-2-oxo-1,2-dihydropyridin-3-yl)benzamide]	3480 nM	222 nM	5.4 nM
Cc1ncccc1-c1cc(-c2[nH]c3ccc(C4CCN(C(C)C)CC4)cc3c2C(C)C)cn(C)c1=O [Example 344, 5-(3-isopropyl-5-(1-isopropylpiperidin-4-yl)-1H-indol-2-yl)-1,2′-dimethyl-[3,3′-bipyridin]-2(1H)-one]	322 nM	26.5 nM	11.5 nM
Cc1cc(-c2[nH]c3ccc(C4CCN(Cc5cnn(C)c5)CC4)cc3c2C(C)C)cn(C)c1=O [Example 196, 5-(3-isopropyl-5-(1-((1-methyl-1H-pyrazol-4-yl)methyl)piperidin-4-yl)-1H-indol-2-yl)-1,3-dimethylpyridin-2(1H)-one]	4980 nM	2.4 nM	3 nM
COCCn1cc(-c2[nH]c3ccc(C4CCN(CC(=O)N(C)C)CC4)cc3c2C(C)C)cc(C)c1=O [Example 159, 2-(4-(3-isopropyl-2-(1-(2-methoxyethyl)-5-methyl-6-oxo-1,6-dihydropyridin-3-yl)-1H-indol-5-yl)piperidin-1-yl)-N,N-dimethylacetamide]	16600 nM	19.7 nM	10.2 nM
Cc1c(-c2[nH]c3ccc(C4CCN(C5COC5)CC4)cc3c2C(C)C)cn(C)c(=O)c1C [Example 207, 5-(3-isopropyl-5-(1-(oxetan-3-yl)piperidin-4-yl)-1H-indol-2-yl)-1,3,4-trimethylpyridin-2(1H)-one]	46800 nM	11.7 nM	20.8 nM
Cc1cc(-c2cc(-c3[nH]c4ccc(C5CCN(C(C)C)CC5)cc4c3C(C)C)cn(C)c2=O)cnc1F [Example 343, 6′-fluoro-5-(3-isopropyl-5-(1-isopropylpiperidin-4-yl)-1H-indol-2-yl)-1,5′-dimethyl-[3,3′-bipyridin]-2(1H)-one]	1170 nM	14.2 nM	18.3 nM
Cc1cc(-c2[nH]c3ccc(C4CCNCC4)cc3c2C(C)C)cn(CC(F)(F)F)c1=O [Example 45, 5-(3-isopropyl-5-(piperidin-4-yl)-1H-indol-2-yl)-3-methyl-1-(2,2,2-trifluoroethyl)pyridin-2(1H)-one]	4670 nM	48.4 nM	12.9 nM
CN[C@H](C)C(=O)N1CCC(c2ccc3[nH]c(-c4cc(C)c(=O)n(C)c4)c(C(C)C)c3c2)CC1 [Example 299, 5-(3-isopropyl-5-(1-(methyl-D-alanyl)piperidin-4-yl)-1H-indol-2-yl)-1,3-dimethylpyridin-2(1H)-one]	504 nM	4.3 nM	3.7 nM
